One data set deals with SARS-CoV-2 (WK-521). Description: microbe, parasite or virus in culture. The format is cell-based. Conditions: Severe acute respiratory syndrome coronavirus 2, HEK-293T, 72 h; for IC50: read-out: IC50 (concentration of agent which reduces viral production and replication by 50%); for IC90: read-out: IC90 (concentration of agent which reduces viral production and replication by 90%).

A short description of data set [1]: in vitro. Particulars: human.
For data set [2], the system named is SARS-CoV (SARS-CoV-HKU-39849). The data set can be described thus: microbe, parasite or virus in culture. The format is cell-based. Conditions: Severe acute respiratory syndrome coronavirus, HEK-293T.
Data set [3] relates to MERS-CoV (MERS-CoV-EMC/2012). Description: microbe, parasite or virus in culture. The format is cell-based. Conditions: Middle East respiratory syndrome-related coronavirus, HEK-293T.
Data set [4] is described as follows: in vitro. Conditions: African green monkey.

Molecules are shown by their SMILES. Some results are limits rather than exact numbers.

On to `CCCCn1c(=O)c2cc(F)c(N)cc2c2cc(C(O)(C(F)(F)F)C(F)(F)F)ccc21` [NR-54], for which, in the data set on SARS-CoV-2 (WK-521), the IC50 worked out at 0.94 µM and the IC90 is 4.64 µM. Also, the CC50 in the data set “in vitro [1]” was determined as 27.2 µM.
As for `CCCCn1c(=O)c2cc(NC(=O)NCCO)ccc2c2cc(C(O)(C(F)(F)F)C(F)(F)F)ccc21` [NR-72], in the data set with SARS-CoV-2 (WK-521), the IC50 is 0.62 µM and the IC90 came out at 2.29 µM. The CC50 in the data set “in vitro [1]” turned out to be 9 µM.
Turning to `CCCCn1c(=O)c2ccc(N)cc2c2cc(C(O)(C(F)(F)F)C(F)(F)F)ccc21` [NR-31-5], in the data set on SARS-CoV-2 (WK-521), the IC50 was determined as 0.546 µM and the IC90 is 2.63 µM. Further, the CC50 in the data set “in vitro [1]” was > 20 µM.
For the molecule `CCCCn1c(=O)c2ccc(NCC(O)CO)cc2c2cc(C(O)(C(F)(F)F)C(F)(F)F)ccc21` (centres unmarked) [NR-90], the IC50 was determined as 0.58 µM with SARS-CoV-2 (WK-521), 2.4 µM in data set [2] and 3.84 µM in data set [3]. For the same molecule, the IC90 in the data set with SARS-CoV-2 (WK-521) was found to be 3.87 µM; in data set [2], 14.2 µM; in data set [3], 13.6 µM. In “in vitro [1]”, the CC50 is > 20 µM.
Consider `CCCCn1c(=O)c2ccc(NC(=O)C(C)N)cc2c2cc(C(O)(C(F)(F)F)C(F)(F)F)ccc21` (centres unmarked) [NR-28], for which, in the data set with SARS-CoV-2 (WK-521), the IC50 is 0.12 µM and the IC90 came to 1.68 µM. Also, the CC50 in the data set “in vitro [1]” came out at 11.8 µM.
On to `CCCCn1c(=O)c2cc(F)c(NC3CCOC3)cc2c2cc(C(O)(C(F)(F)F)C(F)(F)F)ccc21` (centres unmarked) [NR-78], for which, in the data set with SARS-CoV-2 (WK-521), the IC50 turned out to be 0.65 µM and the IC90 came to 3.59 µM. In the data set “in vitro [1]”, this molecule came in with a CC50 of 17.8 µM.
For the molecule `CCCCn1c(=O)c2ccc(NC(=O)C(C)C)cc2c2cc(C(O)(C(F)(F)F)C(F)(F)F)ccc21` [NR-16], in the data set on SARS-CoV-2 (WK-521), the IC50 amounted to 0.575 µM and the IC90 turned out to be 2.03 µM. For the same molecule, in the data set “in vitro [1]”, the CC50 was found to be 15.8 µM.
As to `CCCCn1c(=O)c2cc(NC=O)ccc2c2cc(C(O)(C(F)(F)F)C(F)(F)F)ccc21` [NR-86], in the data set on SARS-CoV-2 (WK-521), the IC50 was 0.08 µM and the IC90 amounted to 3.07 µM. Also, the CC50 in the data set “in vitro [1]” is 16.7 µM.
For `CCCCn1c(=O)c2ccc(NCCN)cc2c2cc(C(O)(C(F)(F)F)C(F)(F)F)ccc21` [NR-102] the same measures were 0.75 µM, 2.4 µM and 5.5 µM.
For the molecule `CCCCn1c(=O)c2ccc(N)c(SC)c2c2cc(C(O)(C(F)(F)F)C(F)(F)F)ccc21` [NR-87], in the data set with SARS-CoV-2 (WK-521), the IC50 worked out at 0.85 µM and the IC90 turned out to be 4.9 µM. For the same molecule, the CC50 in the data set “in vitro [1]” came out at 18.2 µM.
For `CCCCn1c(=O)c2ccc(NCCC)cc2c2cc(C(O)(C(F)(F)F)C(F)(F)F)ccc21` [NR-103], in the data set on SARS-CoV-2 (WK-521), the IC50 amounted to 2.35 µM and the IC90 is > 10 µM. For the same molecule, the CC50 in the data set “in vitro [1]” was > 20 µM.
As for `CCCCn1c(=O)c2ccc(NC(=O)[C@H](N)CO)cc2c2cc(C(O)(C(F)(F)F)C(F)(F)F)ccc21` [NR-47], in the data set on SARS-CoV-2 (WK-521), the IC50 was found to be 0.7 µM and the IC90 is 3.3 µM. Moreover, the CC50 in “in vitro [1]” was determined as 11.7 µM.
Turning to `CCCCn1c(=O)c2cc(NC(=O)C(C)N)ccc2c2cc(C(O)(C(F)(F)F)C(F)(F)F)ccc21` (centres unmarked) [NR-50], in the data set on SARS-CoV-2 (WK-521), the IC50 turned out to be 0.65 µM and the IC90 amounted to 4.6 µM. The same molecule displayed a CC50 in the data set “in vitro [1]” of 12 µM.
For `CCCCn1c(=O)c2cc(NC(=O)[C@@H]3C[C@@H](O)CN3)ccc2c2cc(C(O)(C(F)(F)F)C(F)(F)F)ccc21` [NR-52], in the data set with SARS-CoV-2 (WK-521), the IC50 came to 0.14 µM and the IC90 is 2.43 µM. Moreover, in the data set “in vitro [1]”, the CC50 was determined as 18.1 µM.
On to `CCCCn1c(=O)c2cc(F)c(NCc3ccc(O)cc3)cc2c2cc(C(O)(C(F)(F)F)C(F)(F)F)ccc21` [NR-55], for which, in the data set on SARS-CoV-2 (WK-521), the IC50 was found to be 0.15 µM and the IC90 is 6.79 µM. Further, the CC50 in the data set “in vitro [1]” was > 80 µM.
Regarding `CCCCn1c(=O)c2ccc(NC(=O)C(C)N)c(F)c2c2cc(C(O)(C(F)(F)F)C(F)(F)F)ccc21` (centres unmarked) [NR-44], in the data set with SARS-CoV-2 (WK-521), the IC50 is 0.38 µM and the IC90 worked out at 3.76 µM. This molecule also gave a CC50 in “in vitro [1]” of 10.3 µM.
Regarding `CCCCn1c(=O)c2ccc(NC(CO)CO)cc2c2cc(C(O)(C(F)(F)F)C(F)(F)F)ccc21` [NR-89], the values for the IC50 (in the data set on SARS-CoV-2 (WK-521); in data set [2]; in data set [3]) were 0.35 µM, 4.74 µM and 6.77 µM, respectively. The IC90 with SARS-CoV-2 (WK-521) was 6.1 µM; in data set [2], 20.2 µM; in data set [3], 19 µM. Further, the CC50 in the data set “in vitro [1]” is > 20 µM.
For `CCCCn1c(=O)c2ccc(C(CCO)CCO)cc2c2cc(C(O)(C(F)(F)F)C(F)(F)F)ccc21` [NR-101], in the data set on SARS-CoV-2 (WK-521), the IC50 was 0.54 µM and the IC90 is > 10 µM. The CC50 in the data set “in vitro [1]” is > 20 µM.
In the case of `CCCCn1c(=O)c2ccc(NCCCCCO)cc2c2cc(C(O)(C(F)(F)F)C(F)(F)F)ccc21` [NR-100], in the data set with SARS-CoV-2 (WK-521), the IC50 worked out at 0.59 µM and the IC90 was > 10 µM. Also, in the data set “in vitro [1]”, the CC50 is > 20 µM.
As for `CCCCn1c(=O)c2ccc(NC(=O)CCO)cc2c2cc(C(O)(C(F)(F)F)C(F)(F)F)ccc21` [NR-38], in the data set with SARS-CoV-2 (WK-521), the IC50 worked out at 0.058 µM and the IC90 was > 20 µM. Also, the CC50 in “in vitro [1]” is > 20 µM.
Turning to `CCCn1c(=O)c2ccc(NCCO)cc2c2cc(C(O)(C(F)(F)F)C(F)(F)F)ccc21` [NR-92], in the data set with SARS-CoV-2 (WK-521), the IC50 was 0.72 µM and the IC90 amounted to 3.42 µM. Moreover, the CC50 in “in vitro [1]” was > 20 µM.
For `CCCCn1c(=O)c2ccc(NCC(N)=O)cc2c2cc(C(O)(C(F)(F)F)C(F)(F)F)ccc21` [NR-96] the same measures were 0.68 µM, 4 µM and > 20 µM.
As to `CCCCn1c(=O)c2ccc(NC(=O)CO)cc2c2cc(C(O)(C(F)(F)F)C(F)(F)F)ccc21` [NR-17], in the data set with SARS-CoV-2 (WK-521), the IC50 came out at 0.519 µM and the IC90 was determined as 3.35 µM. In the data set “in vitro [1]”, the CC50 was > 20 µM.
Take `CCCCn1c(=O)c2ccc(NCCCO)cc2c2cc(C(O)(C(F)(F)F)C(F)(F)F)ccc21` [NR-98]: in the data set on SARS-CoV-2 (WK-521), the IC50 was found to be 1.16 µM and the IC90 is > 10 µM. For the same molecule, in the data set “in vitro [1]”, the CC50 was > 20 µM.
Take `CCCCn1c(=O)c2ccc(NC(=O)[C@H]3CC(O)CN3)cc2c2cc(C(O)(C(F)(F)F)C(F)(F)F)ccc21` (some centres unmarked) [NR-30]: the values for the IC50 (in the data set on SARS-CoV-2 (WK-521); in data set [2]; in data set [3]) were 0.059 µM, 6.95 µM and 12.5 µM, respectively. For the same molecule, the results for the IC90 (in the data set with SARS-CoV-2 (WK-521); in data set [2]; in data set [3]) were 1.84 µM, 19.4 µM and 21.8 µM, respectively. In the data set “in vitro [1]”, this molecule had a CC50 of 13.6 µM.
As for `CCCCn1c(=O)c2ccc(NCCO)cc2c2cc(C(O)(C(F)(F)F)C(F)(F)F)ccc21` [NR-31], the results for the IC50 (in the data set on SARS-CoV-2 (WK-521); in data set [2]; in data set [3]) were 0.063 µM, 0.74 µM and 2.15 µM, respectively. In addition, the IC90 is 1.76 µM with SARS-CoV-2 (WK-521), 6.24 µM in data set [2] and 5.96 µM in data set [3]. Moreover, the CC50 in “in vitro [1]” is > 20 µM; in the data set “in vitro [4]” it was 17.6 µM.
Regarding `CC(C)Cn1c(=O)c2ccc(NCCO)cc2c2cc(C(O)(C(F)(F)F)C(F)(F)F)ccc21` [NR-91], in the data set with SARS-CoV-2 (WK-521), the IC50 worked out at 0.51 µM and the IC90 was found to be 4 µM. Moreover, the CC50 in the data set “in vitro [1]” was > 20 µM.
For `CCCCn1c(=O)c2ccc(NCCN(C)C)cc2c2cc(C(O)(C(F)(F)F)C(F)(F)F)ccc21` [NR-105] the same measures were 1.48 µM, > 10 µM and 7.4 µM.
Take `CCCCn1c(=O)c2ccc(NC(C)=O)cc2c2cc(C(O)(C(F)(F)F)C(F)(F)F)ccc21` [TK-04]: in the data set on SARS-CoV-2 (WK-521), the IC50 is 0.576 µM and the IC90 turned out to be 5.97 µM. The CC50 in the data set “in vitro [1]” is 7.13 µM.
`CCCCn1c(=O)c2cc(F)c(NCCO)cc2c2cc(C(O)(C(F)(F)F)C(F)(F)F)ccc21` [NR-56]: in the data set with SARS-CoV-2 (WK-521), the IC50 stood at 0.29 µM and the IC90 turned out to be 8.07 µM. This molecule also came in with a CC50 in the data set “in vitro [1]” of 29.5 µM.
Consider `CCCCn1c(=O)c2ccc(NCCCCO)cc2c2cc(C(O)(C(F)(F)F)C(F)(F)F)ccc21` [NR-99], for which, in the data set with SARS-CoV-2 (WK-521), the IC50 was determined as 1.3 µM and the IC90 is > 10 µM. Moreover, in the data set “in vitro [1]”, the CC50 is > 20 µM.

The values above are taken from US20250026734A1 (priority 2021, published 2025).
